System: Human Cav2.3 channel
Assay: Human Cav2.3 channel calcium-influx assay
Type: cell-based
Details: Fluo8 fluorescence, HEK-293 T-Rex/Kir2.1/Cav2.3e cells, without pluronic acid
Method in brief: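 HEK-293 T-Rex/Kir2.1 cells with doxycycline (0.2 μg/mL)-inducible Cav2.3e plus Cavβ4-α2δ1, loaded with Fluo8 NW in 0 mM K+ Tyrode's. Compounds (8 points, top 30 μM, half-log, 0.3% final DMSO, n=4) preincubated 3 min at RT, then depolarized with 20 mM KCl/2 mM CaCl2 (final); fluorescence read 130 s.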

| Compound | Cav2.3 (pIC50) |
| --- | --- |
| Cc1ccc(S(=O)(=O)N(C)[C@@H](c2ccc(F)cc2)C(F)(F)F)s1 [Example 12, (S)—N,5-dimethyl-N-(2,2,2-trifluoro-1-(4-fluorophenyl)ethyl)thiophene-2-sulfonamide] | 5.00 |
| CCN([C@H](c1ccc(F)cc1)C(F)(F)F)S(=O)(=O)c1csc(C#N)c1 (stereo in doubt) [Example 43, 5-Cyano-N-ethyl-N-(2,2,2-trifluoro-1-(4-fluorophenyl)ethyl)thiophene-3-sulfonamide] | 6.69 |
| CCN([C@@H](c1cccc(OC)c1)C(F)(F)F)S(=O)(=O)c1cncc(C#N)c1 [Example 73, (S)-5-Cyano-N-ethyl-N-(2,2,2-trifluoro-1-(3-methoxyphenyl)ethyl)pyridine-3-sulfonamide] | 5.50 |
| CCN(C(c1ccc(F)cc1)C(F)(F)F)S(=O)(=O)c1ccc(C#N)s1 (centres unmarked) [Example 3, 5-cyano-N-ethyl-N-(2,2,2-trifluoro-1-(4-fluorophenyl)ethyl)thiophene-2-sulfonamide] | 6.31 |
| CN(C(c1ccc(F)cc1)C(F)F)S(=O)(=O)c1ccc(Cl)s1 (centres unmarked) [Example 23, 5-chloro-N-(2,2-difluoro-1-(4-fluorophenyl)ethyl)-N-methylthiophene-2-sulfonamide] | 5.15 |
| CCN([C@H](c1cccc(OC)c1)C(F)(F)F)S(=O)(=O)c1cncc(C#N)c1 [Example 72, (R)-5-Cyano-N-ethyl-N-(2,2,2-trifluoro-1-(3-methoxyphenyl)ethyl)pyridine-3-sulfonamide] | 6.20 |
| CCN(C(c1ccc(F)cc1)C(F)(F)F)S(=O)(=O)c1ccn(C)c(=O)c1 (centres unmarked) [Example 103, N-ethyl-1-methyl-2-oxo-N-(2,2,2-trifluoro-1-(4-fluorophenyl)ethyl)-1,2-dihydropyridine-4-sulfonamide] | 6.50 |
| CCN(C(c1ccc(C)cc1)C(F)(F)F)S(=O)(=O)c1cncc(C#N)c1 (centres unmarked) [Example 104, 5-Cyano-N-ethyl-N-(2,2,2-trifluoro-1-(p-tolyl)ethyl)pyridine-3-sulfonamide] | 7.24 |
| CCN([C@@H](c1ccc(F)cc1)C(F)(F)F)S(=O)(=O)c1ccc2c(c1)OCC2 [Example 41, (S)—N-ethyl-N-(2,2,2-trifluoro-1-(4-fluorophenyl)ethyl)-2,3-dihydrobenzofuran-6-sulfonamide] | 4.72 |
| CCN([C@@H](c1ccc(F)cc1)C(F)(F)F)S(=O)(=O)c1cncc(N2CCOCC2)c1 [Example 95, (S)—N-ethyl-5-morpholino-N-(2,2,2-trifluoro-1-(4-fluorophenyl)ethyl)pyridine-3-sulfonamide] | 5.62 |
| CCN(C(c1ccccc1C)C(F)(F)F)S(=O)(=O)c1cncc(C#N)c1 (centres unmarked) [Example 86, 5-cyano-N-ethyl-N-(2,2,2-trifluoro-1-(o-tolyl)ethyl)pyridine-3-sulfonamide] | 5.95 |
| CCN([C@@H](c1ccc(F)cc1)C(F)(F)F)S(=O)(=O)c1ccc2c(c1)COC2 [Example 37, (S)—N-ethyl-N-(2,2,2-trifluoro-1-(4-fluorophenyl)ethyl)-1,3-dihydroisobenzofuran-5-sulfonamide] | 4.87 |

Results, then the compound that gave them:

| Cav2.3 (pIC50) | Compound |
| --- | --- |
| 6.06 | CCN([C@H](c1ccc(F)cc1)C(F)(F)F)S(=O)(=O)c1ccc2cnn(C)c2c1 [Example 160, (R)—N-ethyl-1-methyl-N-(2,2,2-trifluoro-1-(4-fluorophenyl)ethyl)-1H-indazole-6-sulfonamide] |
| 5.44 | CCN([C@@H](c1cccc(C)c1)C(F)(F)F)S(=O)(=O)c1cncc(C#N)c1 [Example 115, (S)-5-cyano-N-ethyl-N-(2,2,2-trifluoro-1-(m-tolyl)ethyl)pyridine-3-sulfonamide] |
| 7.09 | CN([C@H](c1ccc(C(F)(F)F)cc1)C(F)(F)F)S(=O)(=O)c1cccnc1 [Example 267, (R)—N-methyl-N-(2,2,2-trifluoro-1-(4-(trifluoromethyl)phenyl)ethyl)pyridine-3-sulfonamide] |
| 6.79 | Cc1ccc([C@@H](N(C)S(=O)(=O)c2cncnc2)C(F)(F)F)cc1 [Example 226, (R)—N-methyl-N-(2,2,2-trifluoro-1-(p-tolyl)ethyl)pyrimidine-5-sulfonamide] |
| 6.95 | CN([C@H](c1ccc(C(F)(F)F)cc1)C(F)(F)F)S(=O)(=O)c1cnc2ncccn12 [Example 214, (R)—N-methyl-N-(2,2,2-trifluoro-1-(4-(trifluoromethyl)phenyl)ethyl)imidazo[1,2-a]pyrimidine-3-sulfonamide] |
| 5.14 | CCN([C@H](c1ccccc1C(F)(F)F)C(F)(F)F)S(=O)(=O)c1cncc(C#N)c1 [Example 248, (R)-5-cyano-N-ethyl-N-(2,2,2-trifluoro-1-(2-(trifluoromethyl)phenyl)ethyl)pyridine-3-sulfonamide] |
| 6.05 | CN([C@H](c1ccc(F)cc1)C(F)(F)F)S(=O)(=O)C1CCOCC1 [Example 132, (R)—N-methyl-N-(2,2,2-trifluoro-1-(4-fluorophenyl)ethyl)tetrahydro-2H-pyran-4-sulfonamide] |
| 7.17 | CN([C@H](c1ccc(C(F)(F)F)cc1)C(F)(F)F)S(=O)(=O)c1cnc2cccnn12 [Example 211, (R)—N-methyl-N-(2,2,2-trifluoro-1-(4-(trifluoromethyl)phenyl)ethyl)imidazo[1,2-b]pyridazine-3-sulfonamide] |
| 6.78 | CCN([C@H](c1ccc(F)cc1)C(F)(F)F)S(=O)(=O)c1ccn2cnnc2c1 [Example 138, (R)—N-ethyl-N-(2,2,2-trifluoro-1-(4-fluorophenyl)ethyl)-[1,2,4]triazolo[4,3-a]pyridine-7-sulfonamide] |
| 6.85 | CN([C@H](c1ccc(C(F)(F)F)cc1)C(F)(F)F)S(=O)(=O)c1cncc(F)c1 [Example 224, (R)-5-fluoro-N-methyl-N-(2,2,2-trifluoro-1-(4-(trifluoromethyl)phenyl)ethyl)pyridine-3-sulfonamide] |
| 5.56 | CCN([C@@H](c1ccc(F)c(Cl)c1)C(F)(F)F)S(=O)(=O)c1cncc(C#N)c1 [Example 253, (S)—N-(1-(3-chloro-4-fluorophenyl)-2,2,2-trifluoroethyl)-5-cyano-N-ethylpyridine-3-sulfonamide] |
| 6.61 | CCN([C@H](c1ccc(F)cc1)C(F)(F)F)S(=O)(=O)c1cnc2cc[nH]c2c1 [Example 149, (R)—N-ethyl-N-(2,2,2-trifluoro-1-(4-fluorophenyl)ethyl)-1H-pyrrolo[3,2-b]pyridine-6-sulfonamide] |
| 6.76 | CCN(C(c1ccc(F)cc1)C(F)(F)F)S(=O)(=O)c1ccn2ccnc2c1 (centres unmarked) [Example 135, N-ethyl-N-(2,2,2-trifluoro-1-(4-fluorophenyl)ethyl)imidazo[1,2-a]pyridine-7-sulfonamide] |
| 6.51 | CCN([C@H](c1ccc(F)cc1)C(F)(F)F)S(=O)(=O)c1cc2nncn2cn1 [Example 152, (R)—N-ethyl-N-(2,2,2-trifluoro-1-(4-fluorophenyl)ethyl)-[1,2,4]triazolo[4,3-c]pyrimidine-7-sulfonamide] |
